The source of these data is US7745575B1 (Cellpep Pharma Inc., priority 2004, dated 2010).

Structures are written as SMILES. Bridge positions count the residues as written; N and C are the ends. Peptide text beside a SMILES is read from it. * marks the point of attachment. Pentanoyl = CCCCC(=O)*

The series is described as follows: toxicity in vivo, LD50 after intracerebroventricular injection. The following applies: mouse, icv or intrathecal, 20 g C57/BL6 mice. The procedure:
Groups of six to eight mice per dose were injected with 5 μl peptide solution containing 0.1% (w/v) bovine serum albumin and 0.9% (w/v) NaCl. The LD50 values are set out in Table 5.
What is called LD50 is the dose expected to kill half of the subjects tested. Consider `CCCCC(=O)NCC(=O)N[C@H](C(=O)N[C@H](C(=O)N[C@H](C(=O)N[C@@H](CC(N)=O)C(=O)N[C@H](C(=O)N[C@@H](CCCCN)C(=O)N[C@H]1CSSC[C@@H]2NC(=O)[C@H](CCCCN)NC(=O)CNC(=O)[C@H](Cc3ccccc3)NC(=O)[C@H](CCCNC(=N)N)NC(=O)[C@H](CCSC)NC(=O)CNC(=O)[C@H](C)NC(=O)[C@H](CC(=O)O)NC(=O)[C@H](CCCCN)NC(=O)[C@@H]3CSSC[C@@H](C(=O)N[C@H](C(=O)N4CCC[C@H]4C(=O)N[C@@H](CCCCN)C(=O)O)[C@@H](C)O)NC(=O)[C@H](Cc4c[nH]cn4)NC(=O)[C@H](CSSC[C@H](NC(=O)[C@H](CCC(N)=O)NC(=O)[C@H](CCCNC(=N)N)NC(=O)[C@H](CO)NC(=O)[C@H]([C@@H](C)CC)NC(=O)[C@H](CCCCN)NC1=O)C(=O)N[C@@H](CC(C)C)C(=O)N[C@@H](CCCCN)C(=O)N1CCC[C@H]1C(=O)N3)NC(=O)[C@H](CCCCN)NC(=O)CNC(=O)[C@H](CC(N)=O)NC(=O)[C@H](CCSC)NC2=O)C(C)C)[C@@H](C)CC)[C@@H](C)CC)C(C)C` (Pentanoyl-GVIINVKCKISRQCLKPCKDAGMRFGKCMNGKCHCTPK-OH; disulfide 8-28, 14-33, 18-35), for which the median lethal dose (LD50) was 16 µg/kg. In the case of `CC[C@H](C)[C@@H]1NC(=O)[C@H](CCCCN)NC(=O)[C@@H](NC(=O)[C@@H](N)CCCCN)CSSC[C@@H]2NC(=O)[C@H](CCCCN)NC(=O)CNC(=O)[C@H](Cc3ccccc3)NC(=O)[C@H](CCCNC(=N)N)NC(=O)[C@H](CCSC)NC(=O)CNC(=O)[C@H](C)NC(=O)[C@H](CC(=O)O)NC(=O)[C@H](CCCCN)NC(=O)[C@@H]3CSSC[C@@H](C(=O)N[C@H](C(=O)N4CCC[C@H]4C(=O)N[C@@H](CCCCN)C(=O)O)[C@@H](C)O)NC(=O)[C@H](Cc4c[nH]cn4)NC(=O)[C@H](CSSC[C@H](NC(=O)[C@H](CCC(N)=O)NC(=O)[C@H](CCCNC(=N)N)NC(=O)[C@H](CO)NC1=O)C(=O)N[C@@H](CC(C)C)C(=O)N[C@@H](CCCCN)C(=O)N1CCC[C@H]1C(=O)N3)NC(=O)[C@H](CCCCN)NC(=O)CNC(=O)[C@H](CC(N)=O)NC(=O)[C@H](CCSC)NC2=O` (H-KCKISRQCLKPCKDAGMRFGKCMNGKCHCTPK-OH; disulfide 2-22, 8-27, 12-29) it was 6.5 µg/kg; in that of `CC[C@H](C)[C@@H]1NC(=O)[C@H](CCCCN)NC(=O)[C@@H](NC(=O)[C@H](CCCCN)NC(=O)[C@@H](NC(=O)[C@H](CC(N)=O)NC(=O)[C@@H](NC(=O)[C@@H](NC(=O)[C@@H](N)[C@@H](C)O)[C@@H](C)CC)[C@@H](C)CC)C(C)C)CSSC[C@@H]2NC(=O)[C@H](CCCCN)NC(=O)CNC(=O)[C@H](Cc3ccccc3)NC(=O)[C@H](CCCNC(=N)N)NC(=O)[C@H](CCSC)NC(=O)CNC(=O)[C@H](C)NC(=O)[C@H](CC(=O)O)NC(=O)[C@H](CCCCN)NC(=O)[C@@H]3CSSC[C@@H](C(=O)N[C@H](C(=O)N4CCC[C@H]4C(=O)N[C@@H](CCCCN)C(=O)O)[C@@H](C)O)NC(=O)[C@H](Cc4c[nH]cn4)NC(=O)[C@H](CSSC[C@H](NC(=O)[C@H](CCC(N)=O)NC(=O)[C@H](CCCNC(=N)N)NC(=O)[C@H](CO)NC1=O)C(=O)N[C@@H](CC(C)C)C(=O)N[C@@H](CCCCN)C(=O)N1CCC[C@H]1C(=O)N3)NC(=O)[C@H](CCCCN)NC(=O)CNC(=O)[C@H](CC(N)=O)NC(=O)[C@H](CCSC)NC2=O` (H-TIINVKCKISRQCLKPCKDAGMRFGKCMNGKCHCTPK-OH; disulfide 7-27, 13-32, 17-34), 3 µg/kg. As for `CC[C@H](C)[C@@H]1NC(=O)[C@H](CCCCN)NC(=O)[C@@H](NC(=O)[C@H](CCCCN)NC(=O)[C@@H](NC(=O)[C@H](CC(N)=O)NC(=O)[C@@H](NC(=O)[C@@H](NC(=O)[C@@H](NC(=O)CN)C(C)C)[C@@H](C)CC)[C@@H](C)CC)C(C)C)CSSC[C@@H]2NC(=O)[C@H](CCCCN)NC(=O)CNC(=O)[C@H](CC(N)=O)NC(=O)[C@H](CCCNC(=N)N)NC(=O)[C@H](CCSC)NC(=O)CNC(=O)[C@H](C)NC(=O)[C@H](CC(=O)O)NC(=O)[C@H](CCCCN)NC(=O)[C@@H]3CSSC[C@@H](C(=O)N[C@H](C(=O)N4CCC[C@H]4C(=O)N[C@@H](CCCCN)C(=O)O)[C@@H](C)O)NC(=O)[C@H](Cc4c[nH]cn4)NC(=O)[C@H](CSSC[C@H](NC(=O)[C@H](CCC(N)=O)NC(=O)[C@H](CCCNC(=N)N)NC(=O)[C@H](CO)NC1=O)C(=O)N[C@@H](CC(C)C)C(=O)N[C@@H](CCCCN)C(=O)N1CCC[C@H]1C(=O)N3)NC(=O)[C@H](CCCCN)NC(=O)CNC(=O)[C@H](CC(N)=O)NC(=O)[C@H](CCSC)NC2=O` (H-GVIINVKCKISRQCLKPCKDAGMRNGKCMNGKCHCTPK-OH; disulfide 8-28, 14-33, 18-35), the LD50 amounted to 11.5 µg/kg. In the case of `CC[C@H](C)[C@@H]1NC(=O)[C@H](CCCCN)NC(=O)[C@@H](NC(=O)[C@H](CCCCN)NC(=O)[C@@H](NC(=O)[C@@H](N)CC(N)=O)C(C)C)CSSC[C@@H]2NC(=O)[C@H](CCCCN)NC(=O)CNC(=O)[C@H](Cc3ccccc3)NC(=O)[C@H](CCCNC(=N)N)NC(=O)[C@H](CCSC)NC(=O)CNC(=O)[C@H](C)NC(=O)[C@H](CC(=O)O)NC(=O)[C@H](CCCCN)NC(=O)[C@@H]3CSSC[C@@H](C(=O)N[C@H](C(=O)N4CCC[C@H]4C(=O)N[C@@H](CCCCN)C(=O)O)[C@@H](C)O)NC(=O)[C@H](Cc4c[nH]cn4)NC(=O)[C@H](CSSC[C@H](NC(=O)[C@H](CCC(N)=O)NC(=O)[C@H](CCCNC(=N)N)NC(=O)[C@H](CO)NC1=O)C(=O)N[C@@H](CC(C)C)C(=O)N[C@@H](CCCCN)C(=O)N1CCC[C@H]1C(=O)N3)NC(=O)[C@H](CCCCN)NC(=O)CNC(=O)[C@H](CC(N)=O)NC(=O)[C@H](CCSC)NC2=O` (H-NVKCKISRQCLKPCKDAGMRFGKCMNGKCHCTPK-OH; disulfide 4-24, 10-29, 14-31) it was 5 µg/kg; in that of `CC[C@H](C)[C@@H]1NC(=O)[C@H](CCCCN)NC(=O)[C@@H](NC(=O)[C@H](CCCCN)NC(=O)[C@@H](NC(=O)[C@H](CC(N)=O)NC(=O)[C@@H](NC(=O)[C@@H](NC(=O)[C@@H](NC(=O)CN)C(C)C)[C@@H](C)CC)[C@@H](C)CC)C(C)C)CSSC[C@@H]2NC(=O)[C@H](CCCCN)NC(=O)CNC(=O)[C@H](Cc3ccccc3)NC(=O)[C@H](CCCNC(=N)N)NC(=O)[C@H](CCSC)NC(=O)CNC(=O)[C@H](C)NC(=O)[C@H](CCCCN)NC(=O)[C@H](CCCCN)NC(=O)[C@@H]3CSSC[C@@H](C(=O)N[C@H](C(=O)N4CCC[C@H]4C(=O)N[C@@H](CCCCN)C(=O)O)[C@@H](C)O)NC(=O)[C@H](C)NC(=O)[C@H](CSSC[C@H](NC(=O)[C@H](CCC(N)=O)NC(=O)[C@H](CCCNC(=N)N)NC(=O)[C@H](CO)NC1=O)C(=O)N[C@@H](CC(C)C)C(=O)N[C@@H](CCC(=O)O)C(=O)N1CCC[C@H]1C(=O)N3)NC(=O)[C@H](CCCCN)NC(=O)CNC(=O)[C@H](CC(N)=O)NC(=O)[C@H](CCSC)NC2=O` [[A^34]-OsK1] (H-GVIINVKCKISRQCLEPCKKAGMRFGKCMNGKCACTPK-OH; disulfide 8-28, 14-33, 18-35), 10 µg/kg. The compound `CC[C@H](C)[C@@H]1NC(=O)[C@H](CCCCN)NC(=O)[C@@H](NC(=O)[C@H](CCCCN)NC(=O)[C@@H](NC(=O)[C@H](CC(N)=O)NC(=O)[C@@H](NC(=O)[C@@H](NC(=O)[C@@H](NC(=O)CNC(C)=O)C(C)C)[C@@H](C)CC)[C@@H](C)CC)C(C)C)CSSC[C@@H]2NC(=O)[C@H](CCCCN)NC(=O)CNC(=O)[C@H](Cc3ccccc3)NC(=O)[C@H](CCCNC(=N)N)NC(=O)[C@H](CCSC)NC(=O)CNC(=O)[C@H](C)NC(=O)[C@H](CC(=O)O)NC(=O)[C@H](CCCNC(=N)N)NC(=O)[C@@H]3CSSC[C@@H](C(=O)N[C@H](C(=O)N4CCC[C@H]4C(=O)N[C@@H](CCCCN)C(=O)O)[C@@H](C)O)NC(=O)[C@H](Cc4c[nH]cn4)NC(=O)[C@H](CSSC[C@H](NC(=O)[C@H](CCC(N)=O)NC(=O)[C@H](CCCCN)NC(=O)[C@H](CO)NC1=O)C(=O)N[C@@H](CC(C)C)C(=O)N[C@@H](CCCCN)C(=O)N1CCC[C@H]1C(=O)N3)NC(=O)[C@H](CCCCN)NC(=O)CNC(=O)[C@H](CC(N)=O)NC(=O)[C@H](CCSC)NC2=O` (Ac-GVIINVKCKISKQCLKPCRDAGMRFGKCMNGKCHCTPK-OH; disulfide 8-28, 14-33, 18-35) gave an LD50 of 17.5 µg/kg. In turn, `CC[C@H](C)[C@@H]1NC(=O)[C@H](CCCCN)NC(=O)[C@@H](NC(=O)[C@H](CCCCN)NC(=O)[C@@H](NC(=O)[C@H](CC(N)=O)NC(=O)[C@@H](NC(=O)[C@@H](NC(=O)[C@@H](NC(=O)CN)C(C)C)[C@@H](C)CC)[C@@H](C)CC)C(C)C)CSSC[C@@H]2NC(=O)[C@H](CCCCN)NC(=O)CNC(=O)[C@H](Cc3ccccc3)NC(=O)[C@H](CCCNC(=N)N)NC(=O)[C@H](CCSC)NC(=O)CNC(=O)[C@H](C)NC(=O)[C@H](CC(=O)O)NC(=O)[C@H](CCCCN)NC(=O)[C@@H]3CSSC[C@@H](C(=O)N[C@H](C(=O)N4CCC[C@H]4C(=O)N[C@@H](CCCCN)C(=O)O)[C@@H](C)O)NC(=O)[C@H](Cc4c[nH]cn4)NC(=O)[C@H](CSSC[C@H](NC(=O)[C@H](CCC(N)=O)NC(=O)[C@@H]4CCCN4C(=O)[C@H](CO)NC1=O)C(=O)N[C@@H](CC(C)C)C(=O)N[C@@H](CCCCN)C(=O)N1CCC[C@H]1C(=O)N3)NC(=O)[C@H](CCCCN)NC(=O)CNC(=O)[C@H](CC(N)=O)NC(=O)[C@H](CCSC)NC2=O` (H-GVIINVKCKISPQCLKPCKDAGMRFGKCMNGKCHCTPK-OH; disulfide 8-28, 14-33, 18-35) yielded a median lethal dose (LD50) of 7.5 µg/kg. For `CC[C@H](C)[C@@H]1NC(=O)[C@H](CCCCN)NC(=O)[C@@H](NC(=O)[C@H](CCCCN)NC(=O)[C@@H](NC(=O)[C@H](CC(N)=O)NC(=O)[C@@H](NC(=O)[C@@H](NC(=O)[C@@H](NC(=O)CN)C(C)C)[C@@H](C)CC)[C@@H](C)CC)C(C)C)CSSC[C@@H]2NC(=O)[C@H](CCCCN)NC(=O)CNC(=O)[C@H](Cc3ccccc3)NC(=O)[C@H](CCCNC(=N)N)NC(=O)[C@H](CCSC)NC(=O)CNC(=O)[C@H](C)NC(=O)[C@H](CCCCN)NC(=O)[C@H](CCCCN)NC(=O)[C@@H]3CSSC[C@@H](C(=O)N[C@H](C(=O)N4CCC[C@H]4C(=O)N[C@@H](CCCCN)C(N)=O)[C@@H](C)O)NC(=O)[C@H](Cc4c[nH]cn4)NC(=O)[C@H](CSSC[C@H](NC(=O)[C@H](CCC(N)=O)NC(=O)[C@H](CCCNC(=N)N)NC(=O)[C@H](CO)NC1=O)C(=O)N[C@@H](CC(C)C)C(=O)N[C@@H](CCC(=O)O)C(=O)N1CCC[C@H]1C(=O)N3)NC(=O)[C@H](CCCCN)NC(=O)CNC(=O)[C@H](CC(N)=O)NC(=O)[C@H](CCSC)NC2=O` [OsK1-NH2] the value was 3.5 µg/kg.
